Results from US20170050957A1, “4-AMINO-6-(HETEROCYCLIC)PICOLINATES AND 6-AMINO-2-(HETEROCYCLIC)PYRIMIDINE-4-CARBOXYLATES AND THEIR USE AS HERBICIDES” (Dow AgroSciences LLC, priority 2013, published 2017).
Read-outs that look alike come from different tables or passages of the source.

Key:
[1] = tested on: Key Grass and Sedge Weeds as well as Grass Crops; assay: Post-emergent Test II herbicidal activity (Table 16); format: in vivo; conditions: post-emergence, 336 h, 14 d; for pest or weed control at 35 g/ha: 35 g ai/ha; for pest or weed control at 70 g/ha: 70 g ai/ha; for pest or weed control at 140 g/ha: 140 g ai/ha
How it was run: (§1)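 Visual injury rating (0 = none, 100% = complete kill) made 14 d after treatment, relative to untreated plants. Compounds in an acetone/DMSO/aqueous crop-oil/surfactant spray, at top rate and serial 1/2×-1/16× rates, were applied at 187 L/ha overhead to first-second true leaf plants raised 7-21 d in greenhouse.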

[2] = tested on: Key Broadleaf Weed and Crop Species; assay: Post-emergent Test II herbicidal activity (Table 15); format: in vivo; conditions: post-emergence, 336 h, 14 d; for pest or weed control at 35 g/ha: 35 g ai/ha; for pest or weed control at 70 g/ha: 70 g ai/ha; for pest or weed control at 140 g/ha: 140 g ai/ha
How it was run: as §1

[3] = Cyperus esculentus, yellow nutsedge (Cyperus esculentus), read-out: Visual Growth Reduction (%) 14 Days After Application, CYPES
[4] = Echinochloa crus-galli, barnyardgrass (Echinochloa crus-galli), read-out: Visual Growth Reduction (%) 14 Days After Application, ECHCG
[5] = Oryza sativa, rice (Oryza sativa), read-out: Visual Growth Reduction (%) 14 Days After Application, ORYSA
[6] = Setaria faberi, giant foxtail (Setaria faberi), read-out: Visual Growth Reduction (%) 14 Days After Application, SETFA
[7] = Triticum aestivum, wheat, spring (Triticum aestivum), read-out: Visual Growth Reduction (%) 14 Days After Application, TRZAS
[8] = Zea mays, maize, corn (Zea mays), read-out: Visual Growth Reduction (%) 14 Days After Application, ZEAMX
[9] = Abutilon theophrasti, velvetleaf (Abutilon theophrasti), read-out: Visual Growth Reduction (%) 14 Days After Application, ABUTH
[10] = Amaranthus retroflexus, redroot pigweed (Amaranthus retroflexus), read-out: Visual Growth Reduction (%) 14 Days After Application, AMARE
[11] = Brassica napus, oilseed rape, canola (Brassica napus), read-out: Visual Growth Reduction (%) 14 Days After Application, BRSNN
[12] = Chenopodium album, lambsquarters (Chenopodium album), read-out: Visual Growth Reduction (%) 14 Days After Application, CHEAL
[13] = Euphorbia heterophylla, wild poinsettia (Euphorbia heterophylla), read-out: Visual Growth Reduction (%) 14 Days After Application, EPHHL
[14] = Helianthus annuus, sunflower (Helianthus annuus), read-out: Visual Growth Reduction (%) 14 Days After Application, HELAN

| melting point [°C] | Structure (SMILES) | pest or weed control at 35 g/ha [1, 3] [%] | pest or weed control at 70 g/ha [1, 3] [%] | pest or weed control at 140 g/ha [1, 3] [%] | pest or weed control at 35 g/ha [1, 4] [%] | pest or weed control at 70 g/ha [1, 4] [%] | pest or weed control at 140 g/ha [1, 4] [%] | pest or weed control at 35 g/ha [1, 5] [%] | pest or weed control at 70 g/ha [1, 5] [%] | pest or weed control at 140 g/ha [1, 5] [%] | pest or weed control at 35 g/ha [1, 7] [%] | pest or weed control at 70 g/ha [1, 7] [%] | pest or weed control at 140 g/ha [1, 7] [%] | pest or weed control at 35 g/ha [1, 8] [%] | pest or weed control at 70 g/ha [1, 8] [%] | pest or weed control at 140 g/ha [1, 8] [%] | pest or weed control at 35 g/ha [2, 9] [%] | pest or weed control at 70 g/ha [2, 9] [%] | pest or weed control at 140 g/ha [2, 9] [%] | pest or weed control at 35 g/ha [2, 10] [%] | other results |
| --- | --- | --- | --- | --- | --- | --- | --- | --- | --- | --- | --- | --- | --- | --- | --- | --- | --- | --- | --- | --- | --- |
| 184 to 186 | COC(=O)c1nc(-c2ccc(Cl)c3occc23)c(F)c(N)c1Cl [Compound 2.16, Methyl 4-amino-3-chloro-6-(7-chlorobenzofuran-4-yl)-5-fluoropicolinate] | 0 to 29 | 0 to 29 | 0 to 29 | 0 to 29 | 0 to 29 | 0 to 29 | 0 to 29 | 0 to 29 | 0 to 29 | 0 to 29 | 0 to 29 | 0 to 29 | 45 to 59 | 95 to 100 | 95 to 100 | 85 to 94 | 95 to 100 | 95 to 100 | 95 to 100 | pest or weed control at 35 g/ha [1, 6]: 0 to 29%; pest or weed control at 70 g/ha [1, 6]: 0 to 29%; pest or weed control at 140 g/ha [1, 6]: 0 to 29%; pest or weed control at 70 g/ha [2, 10]: 95 to 100%; pest or weed control at 140 g/ha [2, 10]: 95 to 100%; pest or weed control at 35 g/ha [2, 11]: 45 to 59%; pest or weed control at 70 g/ha [2, 11]: 60 to 74%; pest or weed control at 140 g/ha [2, 11]: 60 to 74%; pest or weed control at 35 g/ha [2, 12]: 95 to 100%; pest or weed control at 70 g/ha [2, 12]: 95 to 100%; pest or weed control at 140 g/ha [2, 12]: 95 to 100%; pest or weed control at 35 g/ha [2, 13]: 0 to 29%; pest or weed control at 70 g/ha [2, 13]: 0 to 29%; pest or weed control at 140 g/ha [2, 13]: 0 to 29%; pest or weed control at 35 g/ha [2, 14]: 95 to 100%; pest or weed control at 70 g/ha [2, 14]: 95 to 100%; pest or weed control at 140 g/ha [2, 14]: 95 to 100% |
| 158 to 159 | COC(=O)c1nc(-c2ccc(Cl)c3occc23)cc(N)c1Cl [Compound 2.19] | 0 to 29 | 0 to 29 | 0 to 29 | 0 to 29 | 0 to 29 | 0 to 29 | 0 to 29 | 0 to 29 | 0 to 29 | 0 to 29 | 0 to 29 | 0 to 29 | 0 to 29 | 0 to 29 | 0 to 29 | 95 to 100 | 95 to 100 | 95 to 100 | 95 to 100 | pest or weed control at 70 g/ha [2, 10]: 95 to 100%; pest or weed control at 140 g/ha [2, 10]: 95 to 100%; pest or weed control at 35 g/ha [2, 11]: 0 to 29%; pest or weed control at 70 g/ha [2, 11]: 60 to 74%; pest or weed control at 140 g/ha [2, 11]: 60 to 74%; pest or weed control at 35 g/ha [2, 12]: 95 to 100%; pest or weed control at 70 g/ha [2, 12]: 95 to 100%; pest or weed control at 140 g/ha [2, 12]: 95 to 100%; pest or weed control at 35 g/ha [2, 13]: 0 to 29%; pest or weed control at 70 g/ha [2, 13]: 0 to 29%; pest or weed control at 140 g/ha [2, 13]: 0 to 29%; pest or weed control at 35 g/ha [2, 14]: 0 to 29%; pest or weed control at 70 g/ha [2, 14]: 75 to 84%; pest or weed control at 140 g/ha [2, 14]: 75 to 84% |
| 204 to 206 | COc1c(N)nc(-c2ccc(Cl)c3occc23)nc1C(=O)O [Compound 2.22] | 0 to 29 | 0 to 29 | 0 to 29 | 0 to 29 | 0 to 29 | 0 to 29 | 0 to 29 | 0 to 29 | 0 to 29 | 0 to 29 | 0 to 29 | 0 to 29 | 0 to 29 | 0 to 29 | 0 to 29 | 30 to 44 | 30 to 44 | 45 to 59 | 95 to 100 | pest or weed control at 35 g/ha [1, 6]: 0 to 29%; pest or weed control at 70 g/ha [1, 6]: 0 to 29%; pest or weed control at 140 g/ha [1, 6]: 0 to 29%; pest or weed control at 70 g/ha [2, 10]: 95 to 100%; pest or weed control at 140 g/ha [2, 10]: 95 to 100%; pest or weed control at 35 g/ha [2, 11]: 0 to 29%; pest or weed control at 70 g/ha [2, 11]: 45 to 59%; pest or weed control at 140 g/ha [2, 11]: 60 to 74%; pest or weed control at 35 g/ha [2, 12]: 95 to 100%; pest or weed control at 70 g/ha [2, 12]: 95 to 100%; pest or weed control at 140 g/ha [2, 12]: 95 to 100%; pest or weed control at 35 g/ha [2, 13]: 0 to 29%; pest or weed control at 70 g/ha [2, 13]: 0 to 29%; pest or weed control at 140 g/ha [2, 13]: 0 to 29%; pest or weed control at 35 g/ha [2, 14]: 75 to 84%; pest or weed control at 70 g/ha [2, 14]: 85 to 94%; pest or weed control at 140 g/ha [2, 14]: 95 to 100% |
